Patent US7674596B2 (priority 2005, dated 2010)
Entries after “also recorded” stand apart in the source; their conditions may differ.

What was measured:
Format in all cases: cell-based
[1] = molecular target: T1, human potassium channel Kir2.1 (Homo sapiens, UniProt P63252); experiment: Whole-cell ruptured patch-clamp recording of inwardly rectifying potassium (IRK) current in clone #30; parameters: dose or concentration left out as unconfirmed; conditions: Ba^2+, voltage clamp
T1 construct: expressed in transfected cells; host or cells: HEK293 stably expressing human T-type α1H; clone #30 (HEK293-TChH-IRK2.1, KCTC 10780BP)
T1 sequence (P63252 1-427): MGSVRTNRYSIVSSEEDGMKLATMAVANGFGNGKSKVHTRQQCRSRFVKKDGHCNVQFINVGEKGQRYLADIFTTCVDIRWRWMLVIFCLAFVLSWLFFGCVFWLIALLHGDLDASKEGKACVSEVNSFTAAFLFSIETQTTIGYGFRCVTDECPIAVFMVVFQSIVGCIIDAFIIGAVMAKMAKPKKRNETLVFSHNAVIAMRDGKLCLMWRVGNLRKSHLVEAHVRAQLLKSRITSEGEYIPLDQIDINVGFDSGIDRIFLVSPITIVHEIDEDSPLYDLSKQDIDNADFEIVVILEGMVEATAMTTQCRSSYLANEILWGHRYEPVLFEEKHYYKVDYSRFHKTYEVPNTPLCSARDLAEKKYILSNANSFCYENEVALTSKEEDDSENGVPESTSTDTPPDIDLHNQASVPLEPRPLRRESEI
Experimental: (§1) The procedures and conditions of the experiment were as follows. The T-type calcium current and inwardly rectifying potassium current (referred as “IRK current” hereinafter) were recorded by the whole-cell ruptured patch-clamp method (Hamil et al., Pflugers Arch., 391:85-100, 198; Jeong and Ikeda, Neuron, 21:1201-1212, 1998), a voltage clamp technique, to confirm which clone could best express the human T-type α1H channel and human potassium channel Kir2.1. In the meantime, the resting membrane potential of the clones that were confirmed by the measurement of calcium and potassium currents was monitored by the gramicidin-perforated current-clamp method (Akaike, Prog. Biophys. Mol. Biol., 65:251-264, 1997).
(§2) The patch electrode used in the measurement above was prepared with a borosilicate glass tube (Corning, USA) by a P-97 flaming brown micro-pipette puller (Sutter Instrument, USA). […] The cell capacitance and series resistance were adjusted to more than 80% by using Axopatch-1D (Axon Instruments, USA) or EPC-10 amplifier (HEKA, Germany). S4 (prepared by Dr. Stephen R. Ikeda, USA) using ITC18 (Instrutech, USA) or Pulse (HEKA, Germany) was used for the generation and data collection of the voltage-stimulating protocol. […] The results were recorded in a computer. […]
(§3) The T-type α1H channel current, activated at −50 mV and showing maximum activity at −30 mV, was recorded as well. […]

[2] = molecular target: T1, human potassium channel Kir2.1; experiment: Gramicidin-perforated current-clamp measurement of membrane potential of clone #30; conditions: 100 μM barium
Experimental: as §1, §2, §3

T-type α1H channel [3] = molecular target: T2, T-type α1H channel (Homo sapiens, UniProt O95180); experiment: Fluo-3 fluorescent calcium imaging (cooled CCD) in clone #30 cells (HEK293-TChH-IRK2.1); conditions: for increase of intracellular calcium signal (fluorescent image) upon KCl depolarization: 60 mM KCl
T2 construct: expressed in transfected cells; clone #30, KCTC 10780BP
T2 sequence (O95180 whole entry): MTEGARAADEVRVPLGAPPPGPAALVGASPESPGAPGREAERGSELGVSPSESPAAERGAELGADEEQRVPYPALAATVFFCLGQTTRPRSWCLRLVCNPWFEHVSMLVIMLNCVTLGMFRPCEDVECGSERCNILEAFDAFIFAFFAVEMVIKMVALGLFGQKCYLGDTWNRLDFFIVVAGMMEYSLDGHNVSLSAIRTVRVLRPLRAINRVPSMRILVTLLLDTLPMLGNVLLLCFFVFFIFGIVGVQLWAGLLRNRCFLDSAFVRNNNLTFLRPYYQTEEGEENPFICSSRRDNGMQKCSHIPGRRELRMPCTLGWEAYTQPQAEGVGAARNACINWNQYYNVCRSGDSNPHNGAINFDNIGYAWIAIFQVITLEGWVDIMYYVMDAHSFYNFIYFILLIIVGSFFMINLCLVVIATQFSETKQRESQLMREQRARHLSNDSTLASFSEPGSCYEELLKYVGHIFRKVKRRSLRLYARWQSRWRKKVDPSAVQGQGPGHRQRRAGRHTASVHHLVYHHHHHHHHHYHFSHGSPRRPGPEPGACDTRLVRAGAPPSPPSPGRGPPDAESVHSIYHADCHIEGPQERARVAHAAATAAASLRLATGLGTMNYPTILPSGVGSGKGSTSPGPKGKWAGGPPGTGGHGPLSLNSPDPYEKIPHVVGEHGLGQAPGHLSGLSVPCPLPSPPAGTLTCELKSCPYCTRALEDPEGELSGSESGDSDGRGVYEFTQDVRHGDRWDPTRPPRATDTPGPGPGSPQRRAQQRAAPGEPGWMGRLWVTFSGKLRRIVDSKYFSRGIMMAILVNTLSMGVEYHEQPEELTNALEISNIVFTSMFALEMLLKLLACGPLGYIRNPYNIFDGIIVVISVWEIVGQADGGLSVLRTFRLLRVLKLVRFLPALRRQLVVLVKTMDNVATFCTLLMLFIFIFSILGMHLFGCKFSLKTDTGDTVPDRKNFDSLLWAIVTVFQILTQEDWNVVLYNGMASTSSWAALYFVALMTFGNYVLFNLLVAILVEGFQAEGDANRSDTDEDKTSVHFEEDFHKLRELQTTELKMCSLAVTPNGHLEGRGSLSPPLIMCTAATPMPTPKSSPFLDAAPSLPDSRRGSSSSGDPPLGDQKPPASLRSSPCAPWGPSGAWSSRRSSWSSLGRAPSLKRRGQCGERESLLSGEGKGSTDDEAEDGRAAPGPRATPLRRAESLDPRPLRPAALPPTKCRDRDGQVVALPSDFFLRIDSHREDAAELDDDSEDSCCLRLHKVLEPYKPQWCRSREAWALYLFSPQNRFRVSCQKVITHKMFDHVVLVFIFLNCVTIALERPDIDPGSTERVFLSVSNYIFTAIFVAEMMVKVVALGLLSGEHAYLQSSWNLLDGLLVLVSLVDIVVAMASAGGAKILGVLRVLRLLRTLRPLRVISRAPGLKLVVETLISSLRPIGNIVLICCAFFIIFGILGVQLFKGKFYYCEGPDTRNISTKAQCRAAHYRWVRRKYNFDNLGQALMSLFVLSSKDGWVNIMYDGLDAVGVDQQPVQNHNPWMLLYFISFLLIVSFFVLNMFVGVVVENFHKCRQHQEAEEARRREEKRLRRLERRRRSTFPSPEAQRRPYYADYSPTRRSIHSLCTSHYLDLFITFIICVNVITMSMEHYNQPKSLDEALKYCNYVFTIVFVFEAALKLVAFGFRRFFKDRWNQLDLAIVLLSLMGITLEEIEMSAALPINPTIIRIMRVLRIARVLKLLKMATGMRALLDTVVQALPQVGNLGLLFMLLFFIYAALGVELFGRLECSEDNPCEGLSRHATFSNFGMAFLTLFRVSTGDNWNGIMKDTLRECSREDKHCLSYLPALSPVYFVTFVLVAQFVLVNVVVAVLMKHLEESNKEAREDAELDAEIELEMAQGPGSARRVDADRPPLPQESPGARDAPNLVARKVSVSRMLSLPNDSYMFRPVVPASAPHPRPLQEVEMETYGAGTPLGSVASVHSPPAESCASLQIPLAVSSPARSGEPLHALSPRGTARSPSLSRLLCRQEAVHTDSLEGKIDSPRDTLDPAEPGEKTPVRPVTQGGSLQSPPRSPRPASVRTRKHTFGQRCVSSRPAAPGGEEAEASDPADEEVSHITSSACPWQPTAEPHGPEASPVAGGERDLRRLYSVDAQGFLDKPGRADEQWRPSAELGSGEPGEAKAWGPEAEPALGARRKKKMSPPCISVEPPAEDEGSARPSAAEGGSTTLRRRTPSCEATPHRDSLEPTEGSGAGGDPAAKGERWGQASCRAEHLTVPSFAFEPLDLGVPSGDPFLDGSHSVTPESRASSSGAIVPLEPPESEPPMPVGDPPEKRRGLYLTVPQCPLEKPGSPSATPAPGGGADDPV
Experimental: (§4) Intracellular calcium concentrations were measured by the ratio fluorescence system (Ratiomaster, Photon Technology International, USA) installed on a fluorescent microscope (Nikon TE2000, Japan) as well as CoolSNAP CCD imaging system (Loafer Scientific, USA). Particularly, Fura-2/AM or Fluo-3 (Molecular Probes, USA) was added up to 5 μM to cells cultured on a cover slip, followed by loading at room temperature for 30-60 minutes with the light blocked. After the loading, the cells were washed twice with an extracellular flushing medium, and then the cover slip, on which the cells were stuck, was put on a perfusion chamber on the microscope. In the case of Fura-2/AM, the changes in the intracellular calcium (Ca^2+) concentration were measured using a photomultiplier (PM) tube in the ratio of fluorescence (F340/F380 t) emitted at 510 nm when 340 nm and 380 nm were used for excitation respectively. When Fluo-3 was used, fluorescent ratios were not measured but the fluorescent image emitted at 525 nm was recorded and captured by a cooled CCD, which was then analyzed by the Metaimage 6.1 program (Imaging Corporation, USA).
To measure fluorescent calcium image, Fluo-3 was loaded to clone #30 cells.

T-type α1H channel [4] = molecular target: T2, T-type α1H channel; experiment: Fura-2/AM ratio fluorescence (F340/F380) calcium assay in single cell of clone #30 (HEK293-TChH-IRK2.1) depolarized by KCl; conditions: depolarization by 60 mM KCl, pre-treatment with mibefradil (3 μM elsewhere in the source)
Experimental: as §4

With `[Ba+2]` [Ba^2+, barium] the IRK current [1] was “blocked” and the membrane potential response [2] was “Ca^2+ spikes or action potentials were induced with depolarization”.
With `[Ni+2]` [Ni^2+, nickel (Ni^2+)] the “increase of intracellular calcium signal (fluorescent image) upon KCl depolarization” value (“increase of intracellular calcium signal” for short) (T-type α1H channel [3]; pre-treatment with 100 μM nickel) was “completely inhibited” and the “increase of intracellular calcium signal” value (T-type α1H channel [3]; pre-treatment with 100 mM Ni^2+) was “completely inhibited”.
In the case of `COCC(=O)O[C@]1(CCN(C)CCCc2nc3ccccc3[nH]2)CCc2cc(F)ccc2[C@@H]1C(C)C` [mibefradil], the “increase in intracellular calcium (F340/F380 ratio) by influx through T-type α1H channels” value (T-type α1H channel [4]) is reported as “completely blocked; also recorded: completely inhibited”, the “increase of intracellular calcium signal” value (T-type α1H channel [3]; pre-treatment with mibefradil (3 μM elsewhere in the source)) is reported as “completely inhibited; also recorded: completely blocked” and the “intracellular calcium level at non-depolarized resting phase (number of red cells)” value (T-type α1H channel [3]; no KCl, mibefradil (3 μM elsewhere in the source)) is reported as “reduced remarkably; also recorded: remarkably reduced”.
